Data reported in patent publication US9453017B2, “Antiviral therapies with phospholipase D inhibitors” (Vanderbilt University, priority 2011, dated 2016).
Where two headings read alike, the source gives them in different places.

How the values were obtained:
influenza virus strains = format: cell-based
[1] = tested on: RAB5 and CD63 in A549 cells infected with A/California/04/2009; assay: Diffuse infection model, RAB5 and CD63 recruitment (FIG. 8c-f); format: cell-based, human
Description: (§1) A549 cells were seeded onto chamber slides and allowed to adhere overnight. The cells were washed with PBS, and serum-free medium containing treatment was added to the cells. After one hour of treatment, the medium was removed and replaced with serum-free medium containing treatment and 0.05 MOI influenza virus. The infected cultures were kept at 4° C. for 15 minutes before being incubated at 37° C. At appropriate times, cultures were removed and fixed with […] and processed for microscopy as above. Z stacks were acquired using a Zeiss LSM 510 microscope, and images were analyzed with ImageJ (Java-based software available from NIH). Data was processed as above.
(§2) Samples were fixed in 4% formaldehyde, permeabilized with 0.3% Triton X-100, and then exposed to antisera targeting proteins of interest and corresponding fluorescent secondary antibodies alongside DAPI to visualize nuclei. Focal infections were imaged and processed using a Nikon C1Si and NIS Elements software. Confocal images were captured with a Zeiss LSM 510 NLO Meta and analyzed with Zeiss Zen 2011 software and ImageJ.
(§3) (i) Quantitation of the area of positive Mx1 staining, n=4 for DMSO and n=5 for drug treatments. ANOVA and Dunnett's post test were used to determine significance of changes when PLD inhibitors were used, and a t-test was used when cells were treated with alcohol, * p<0.05, ** p<0.01, ***, p<0.001, **** p<0.0001. Data in (b, d, f, i) is mean±SEM, n=3 fields of at least 15 cells.

[2] = tested on: clathrin in A549 cells infected with A/Brisbane/59/07; assay: Diffuse infection model, clathrin accumulation (FIG. 8a-b); format: cell-based, human
Description: as §1, §2, §3

[3] = tested on: A/Brisbane/59/2007 (H1N1); format: cell-based, influenza virus; conditions: for infected cells, A/Brisbane/59/2007: 10 μM, vs DMSO vehicle
[4] = tested on: A/California/04/2009 (H1N1); format: cell-based, influenza virus
influenza virus = format: cell-based; conditions: 10 μM compound; compared to vehicle; FIG. 2
[5] = Pharmacokinetics after intraperitoneal injection in mice (FIG. 15); format: in vivo; conditions: mouse
Description: The pharmacokinetic behavior of a representative disclosed PLD inhibitor of the present invention was assessed following intraperitoneal administration in a mouse model. Briefly, mice were administered a single dose of the PLD inhibitor VU0364739 (10 mg/kg) by intraperitoneal injection. Tissue (brain, lung, and liver) and plasma samples were isolated following euthanizing animals (N=2 for each time point) at the indicated time points (see FIG. 15). The samples were flash frozen and stored at −80° C. Analysis was carried out by LC-MS/MS following extraction.

phospholipase D (PLD) = format: cell-based, human; conditions: 10 μM; A549 cells infected with California/04/2009 at 1 MOI; 6 hours post-infection; FIG. 6
[6] = tested on: PR8 (A/Puerto Rico/8/1934); assay: Lethal influenza infection in mice, JWJ 13 mg/kg (FIG. 9); format: in vivo, mouse
PR8 influenza A virus = assay: In vivo mouse model of influenza infection, 30 mg/kg (FIGS. 3, 4); conditions: 30 mg/kg intraperitoneal twice daily for 7 days; for survival of infected mice: FIG. 4
Description: A mouse model of influenza infection was used to test the in vivo efficacy of representative disclosed compounds. Compounds were administered at 30 mg/kg and the mice were infected with PR8 influenza A virus. Briefly, C57BL/6J mice (female 8- to 10-wk-old; purchased from The Jackson Laboratory and held under pathogen-free conditions at St. Jude Children's Research Hospital) were used in these studies. Mice were anesthetized by i.p. injection with Avertin (2,2,2-tribromethanol; prepared in-house) before intranasal (i.n.) infection with 80% infective dose (EID80) units of the PR8 influenza A virus in PBS. Mice were administered either the indicated PLD inhibitor (30 mg/kg) or vehicle intraperitoneal starting at 24 hr per exposure. Compounds were administered twice daily for 7 days and subjects were measured for changes in body weight (FIG. 3) or survival (FIG. 4) as a function of PLD inhibitor administration. Mice were sacrificed if moribund.

[7] = tested on: A549 cells infected with A/Puerto Rico/8/1934; assay: Viral nucleoprotein (NP) / Rab11 trafficking (FIG. 8g); format: cell-based, human; conditions: 5 μM; A/Puerto Rico/8/1934, MOI=5; 16 hr infection
Text: as §2, §3

A/Puerto Rico/8/1934 = assay: Traditional plaque assay in MDCK cells (FIG. 14a); conditions: 10 μM, vs DMSO treated control
[8] = 10 μM PLD inhibitor, vs DMSO control
[9] = 50 minutes post-infection, 0.05 MOI, vs DMSO
[10] = 80 minutes post-infection, 0.05 MOI, vs DMSO

| SMILES | virus infection of A549 cells (influenza virus strains) | infection of A549 cells (influenza virus) | CD63 accumulation [1, 8] | clathrin accumulation [2, 9] | clathrin accumulation [2, 10] | protection from A/Brisbane/59/2007 infection [3] | infected cells, A/Brisbane/59/2007 [3] | survival of infected mice (PR8 influenza A virus) | viral nucleoprotein (NP) trafficking [7] | plaque formation (A/Puerto Rico/8/1934) | protection from A/California/04/2009 infection ([4]; 10 μM, […], vs vehicle control) | other results |
| --- | --- | --- | --- | --- | --- | --- | --- | --- | --- | --- | --- | --- |
| CC(C)(C)O [tert-butanol] | does not have any effect on virus infection of A549 cells | – | – | – | – | – | – | – | – | – | – | – |
| CCCCO [n-butanol, reference compound] | has a significant effect on virus infection of A549 cells | – | – | – | – | – | – | – | – | – | – | CD63 accumulation ([1]; 0.6% alcohol, vs respective control (tert-butanol)): significantly less CD63; clathrin accumulation ([2]; 0.6% alcohol, 80 minutes after infection, compared to tert-butanol): significantly less clathrin had accumulated; protection from productive infection, A/Brisbane/59/2007 [3]: significantly protected from a productive infection; protection from productive infection, A/California/04/2009 [4]: significantly protected from a productive infection |
| O=C(NCCN1CCC2(CC1)C(=O)NCN2c1cccc(F)c1)c1ccc2ccccc2c1 [No. 1, N-(2-(1-(3-fluorophenyl)-4-oxo-1,3,8-triazaspiro[4.5]decan-8-yl)ethyl)-2-naphthamide] | – | blocked infection of A549 cells | significantly less CD63 | accumulated less clathrin | persisted at least until 80 minutes | still significantly protected | significantly fewer (p<0.001) infected cells | survival improved | trafficking was disrupted | less plaque formation | significant protection | accumulation in liver and lung ([5]; in vivo, ip, 10 mg/kg): elevated accumulation in liver and lung compared to plasma; accumulation in brain ([5]; single dose 10 mg/kg intraperitoneal, 15 min to 3 hr post-administration): appeared to be constant; exposure in tissues (brain, lung, liver) and plasma ([5]; single dose 10 mg/kg intraperitoneal, FIG. 15): sustained exposure in the tissues examined and in plasma over a period of at least three hours; formation of PtdBuOH (phospholipase D (PLD)): inhibited; less likely to die ([6]; 13 mg/kg intraperitoneal, 4000 EID50 PR8, Log-Rank p=0.0061, FIG. 9b): about 27%; mice that survived (of cohort) ([6]; 13 mg/kg intraperitoneal, 4000 EID50 PR8, vehicle one out of 42): 12/38; recovery of weight lost ([6]; 13 mg/kg intraperitoneal, 4000 EID50 PR8, vs vehicle): recovered the weight lost more quickly; weight loss ([6]; 13 mg/kg intraperitoneal, 4000 EID50 PR8, vs vehicle, FIG. 9a): lost significantly less weight; virus in lungs (plaque assay) ([6]; 8 hours after infection, p=0.0017, FIG. 9c): significantly less virus; innate immune response ([6]; 8 hours after infection, vs vehicle): more activated innate immune response; protection from A/California/04/2009 infection [4]: protected (p<0.05) |
| C[C@@H](CN1CCC(n2c(=O)[nH]c3cc(Br)ccc32)CC1)NC(=O)[C@@H]1C[C@@H]1c1ccccc1 [No. 2, (1R,2S)-N-((S)-1-(4-(5-bromo-2-oxo-2,3-dihydro-1H-benzo[d]imidazol-1-yl)piperidin-1-yl)propan-2-yl)-2-phenylcyclopropanecarboxamide] | – | blocked infection of A549 cells | significantly less CD63 | accumulated less clathrin | persisted at least until 80 minutes | still significantly protected | significantly fewer (p<0.001) infected cells | particularly profound | trafficking was disrupted | less plaque formation | – | weight loss associated with virus infection (PR8 influenza A virus; vs vehicle (10% Tween 80), through about day 11 post-infection, FIG. 3): trend of the test compound to protect infected mice against weight loss |
| O=C(NCCN1CCC(n2c(=O)[nH]c3ccccc32)CC1)c1ccc2ccccc2c1 [No. 3, N-(2-(4-(2-oxo-2,3-dihydro-1H-benzo[d]imidazol-1-yl)piperidin-1-yl)ethyl)-2-naphthamide] | – | blocked infection of A549 cells | significantly less CD63 | accumulated less clathrin | – | still significantly protected | significantly fewer (p<0.001) infected cells | – | – | – | significant protection | – |
